Measured values reported in PubChem BioAssay (NCI).
Where “and” joins values, the source holds several entries; their conditions need not be identical. Equal values may be shown once.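 Grown in 96-well plates, cells were treated for 48 hours with each compound at five concentrations. Insufficient inhibition: endpoint recorded as highest concentration tested. The concentration for 50% growth inhibition is given as GI50. TGI denotes the concentration required for complete inhibition of growth.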

System: MDA-MB-468 breast
Assay: growth of human tumour cells (NCI), 48 h

COc1ccc(Nc2cc(C)nc(N3CCN(c4ccnc5cc(Cl)ccc45)CC3)n2)cc1
GI50: 1.77 µM | TGI: 5.57 µM

CCOC(=O)/C(C#N)=C/c1ccc2c(c1)CC1(C2)Cc2cc(CC)c(C(C)O)cc2C1 (configuration not stated)
GI50: 12.4 µM | TGI: 36.8 µM

C=C1c2c(Cl)ccc(O)c2C(O)=C2C(=O)[C@]3(O)C(O)=C(C(N)=O)C(=O)[C@@H](N(C)C)[C@@H]3[C@@H](O)[C@H]12
GI50: 0.846 µM | TGI: 2.56 µM

c1ccc(CNc2nc(Nc3ccccc3)nc3ccccc23)cc1
GI50: 1.09 µM | TGI: 2.56 µM

C#Cc1nc(C2=C(C)C(OC(C)=O)/C(=N/OC(C)=O)C2)cs1 (configuration not stated)
GI50: 2.07 µM | TGI: 8.72 µM

CO[C@H]1CC(c2ccc[nH]2)=N[C@]12O[C@@H](C)C[C@@H]1CCCCCCCc3ccc([nH]3)[C@H]12
GI50: 0.444 µM | TGI: 3.62 µM

CC(C)CCN[C@@H]1CCc2cc(O)c(N3CC(=O)NS3(=O)=O)c(F)c2C1
GI50: > 100 µM | TGI: > 100 µM

Cn1c(=O)c(Oc2ccc(F)cc2F)cc2cnc(NCCS(C)(=O)=O)nc21
GI50: > 25 µM | TGI: > 25 µM

COc1cc(/C=N/NC(=O)c2cn(C3CC3)c3c(OC)c(N4CC5CCCNC5C4)c(F)cc3c2=O)ccc1O (configuration not stated)
GI50: 1.63 µM | TGI: 3.11 µM

Cc1nc(Nc2nc3ccccc3o2)nc(-c2cccc([N+](=O)[O-])c2)c1C(=O)Nc1ccc(F)c(Cl)c1
GI50: 1.28 µM | TGI: 6.44 µM

CC(C)COC(=O)c1ccc2[nH]c(O)c(C=Nc3ccc(S(N)(=O)=O)cc3)c2c1
GI50: 1.57 µM | TGI: 4.36 µM

COc1cc(/C=C/C(=O)c2cccnc2Nc2ccc(F)cc2)cc(OC)c1OC
GI50: 1.77 µM | TGI: 5.67 µM

COc1ccc2nc(NC(=O)c3cccnc3Nc3cc(OC)c(OC)c(OC)c3)sc2c1
GI50: 17.8 µM | TGI: 62.7 µM

CC(=O)Oc1ccc(C(c2ccc(OC(C)=O)cc2)c2ccccn2)cc1
GI50: 0.458 µM and 1.34 µM | TGI: 25 µM and 45.2 µM

CN(C)CCN1C(=O)c2cccc3cccc(c23)C1=O
GI50: 10.3 µM | TGI: > 25 µM

Cc1cccc2c(N)c3ccccc3nc12
GI50: 1.44 µM | TGI: 4.63 µM

COc1ccc(-c2nn(-c3cccc(NC(=O)c4ccc(N5CCOCC5)c(C(F)(F)F)c4)c3)cc2-c2ccncc2)cc1Cl
GI50: 6.88 µM | TGI: > 50 µM

OCCN1CCN(CC/C=C2\c3ccccc3Sc3ccc(Cl)cc32)CC1
GI50: 1.54 µM and 1.82 µM | TGI: 3.18 µM and 4.05 µM

COc1ccc(C2=CC(c3ccc(OC)c(OC)c3)c3c(c4ccccc4oc3=O)O2)cc1OC (configuration not stated)
GI50: 0.475 µM | TGI: 8.3 µM

C/C=C(\C)C(=O)N[C@H]1C(O)C[C@]2(C)C3CC[C@@]4(C)C(CC[C@@H]4C(C)N(C)C)C3CCC2C1O (some centres not stated)
GI50: 1.7 µM | TGI: 4.54 µM

COc1cc(Cl)cc(-c2nn(-c3cccc(NC(=O)Nc4ccc(Cl)c(C(F)(F)F)c4)c3)cc2-c2ccncc2)c1
GI50: 0.99 µM | TGI: 5.47 µM

CCCNc1nc2ccccc2c2c1S(=O)(=O)c1ccc(Cl)cc1C2=O
GI50: 0.195 µM | TGI: 1.47 µM

COc1ccc(OC)c(Nc2nc(-c3c(C)nc4sccn34)cs2)c1
GI50: 1.7 µM | TGI: 75.3 µM

O=C(Nc1ccc(I)cc1F)c1cc(Cl)ccc1O
GI50: 0.361 µM | TGI: 1.73 µM

CCN(CC)CCOc1ccc(C(=O)/C=C\c2ccc(Cl)cc2Cl)cc1
GI50: 5.05 µM | TGI: 19 µM

O=C1NCCS(=O)(=O)/C1=C\C=C\c1cccc(C(F)(F)F)c1
GI50: 1.56 µM | TGI: 4.53 µM
